Where a name gives a salt, the structure may show the parent alone.
Legend:
human cultured PBMC = test: Cell migration test (in vitro, human MIP-1β-induced migration of human cultured PBMC); format: cell-based; settings: human MIP-1β in lower well, incubated 1.5 hours, average value (n=3), read-out: IC50 value, inhibitory activity against human MIP-1β-induced cell migration of human cultured PBMC
Protocol: Preparation of PBMC (Peripheral Blood Mononuclear Cell)
Human venous blood (50 mL) collected by using syringe with heparin sodium (final concentration: 10 U/mL, heparin sodium injection 1000 U/mL, Shimizu Pharmaceutical Co., Ltd.) was stored into 50 mL of conical tube made by polypropylene. To a Lymphoprep tube (HYCOMED PHARMA, Cat. No 1019818), 16.5 mL of DPBS (−) (GIBCO, Cat No. 14190-136) and a blood sample were added, jiggled several times, then centrifuged at 3000 rpm for 10 minutes at room temperature. […]
50 μL of 5×10^5 cells of the human PBMC suspension (culture medium) and 50 μL of the solution of the test compound (0-2 μmol/L: double concentration of a final concentration) were added to an upper well of transwell (coster), and 300 μL of 60 nmol/L of the human MIP-1β (Pepro tech, Cat. No. 300-09) and 300 μL of a double concentration of the solution of the test compound were added to a lower well. […] 100 μL of the solution was transferred to white 96 well plate for fluorescence from lower well by pipetting, an amount of cells was measured by using Celltiter Glo (Promega) (a measurement of ATP), Cell migration inhibition ratio was calculated by the following calculating formula. The value of IC50 was calculated from cell migration inhibition ratio of each concentration. […]

[1] = Stability test in liver microsome of monkey; settings: liver microsome of monkey 1 mg/mL, test compound 5 μmol/L, 30 minutes at 37° C.

| SMILES | IC50 (human cultured PBMC) | residual ratio of the unmetabolite [1] |
| --- | --- | --- |
| CS(=O)(=O)Nc1ccc(Oc2ccc(CN3CCC(N(C(=O)Nc4ccc(F)cc4)c4ccsc4)CC3)cn2)cc1 [Example 7(29), N-(4-{[5-({4-[{[(4-fluorophenyl)amino]carbonyl}(3-thienyl)amino]-1-piperidinyl}methyl)-2-pyridinyl]oxy}phenyl)methanesulfonamide hydrochloride (or dihydrochloride)] | 1.2 nM | – |
| CC(=O)Nc1cc(NC(=O)N(c2ccccc2)C2CCN(Cc3ccc(Oc4ccc(NS(C)(=O)=O)cc4)nc3)CC2)ccc1F [Example 7(83), N-[2-fluoro-5-({[{1-[(6-{4-[(methylsulfonyl)amino]phenoxy}-3-pyridinyl)methyl]-4-piperidinyl}(phenyl)amino]carbonyl}amino)phenyl]acetamide hydrochloride (or dihydrochloride)] | – | 88% |
